Measured values taken from ChEMBL document CHEMBL5338728, “Advancing Strategies for Proteolysis-Targeting Chimera Design” (J Med Chem, 2023).

Tests used:
[1] = molecular target: T1, Protein cereblon/Bromodomain-containing protein 4 (Homo sapiens, UniProt O60885+Q96SW2); test: Protac activity at CRBN/BRD4 in HEK293 cells assessed as protein degradation by measuring maximal efficacy relative to control; format: cell-based
[2] = molecular target: T2, Protein polybromo-1/von Hippel-Lindau disease tumor suppressor (Homo sapiens, UniProt Q86U86+P40337); test: Protac activity at VHL/PBRM1 in human MV4-11 cells assessed as protein degradation; format: cell-based
[3] = molecular target: T3, von Hippel-Lindau disease tumor suppressor/SWI/SNF-related matrix-associated actin-dependent regulator of chromatin subfamily A member 2 (Homo sapiens, UniProt P51531+P40337); test: Protac activity at VHL/SMARCA2 in human NCI-H1568 cells assessed as protein degradation; format: cell-based
Target sequence in this assay (P51531 whole entry): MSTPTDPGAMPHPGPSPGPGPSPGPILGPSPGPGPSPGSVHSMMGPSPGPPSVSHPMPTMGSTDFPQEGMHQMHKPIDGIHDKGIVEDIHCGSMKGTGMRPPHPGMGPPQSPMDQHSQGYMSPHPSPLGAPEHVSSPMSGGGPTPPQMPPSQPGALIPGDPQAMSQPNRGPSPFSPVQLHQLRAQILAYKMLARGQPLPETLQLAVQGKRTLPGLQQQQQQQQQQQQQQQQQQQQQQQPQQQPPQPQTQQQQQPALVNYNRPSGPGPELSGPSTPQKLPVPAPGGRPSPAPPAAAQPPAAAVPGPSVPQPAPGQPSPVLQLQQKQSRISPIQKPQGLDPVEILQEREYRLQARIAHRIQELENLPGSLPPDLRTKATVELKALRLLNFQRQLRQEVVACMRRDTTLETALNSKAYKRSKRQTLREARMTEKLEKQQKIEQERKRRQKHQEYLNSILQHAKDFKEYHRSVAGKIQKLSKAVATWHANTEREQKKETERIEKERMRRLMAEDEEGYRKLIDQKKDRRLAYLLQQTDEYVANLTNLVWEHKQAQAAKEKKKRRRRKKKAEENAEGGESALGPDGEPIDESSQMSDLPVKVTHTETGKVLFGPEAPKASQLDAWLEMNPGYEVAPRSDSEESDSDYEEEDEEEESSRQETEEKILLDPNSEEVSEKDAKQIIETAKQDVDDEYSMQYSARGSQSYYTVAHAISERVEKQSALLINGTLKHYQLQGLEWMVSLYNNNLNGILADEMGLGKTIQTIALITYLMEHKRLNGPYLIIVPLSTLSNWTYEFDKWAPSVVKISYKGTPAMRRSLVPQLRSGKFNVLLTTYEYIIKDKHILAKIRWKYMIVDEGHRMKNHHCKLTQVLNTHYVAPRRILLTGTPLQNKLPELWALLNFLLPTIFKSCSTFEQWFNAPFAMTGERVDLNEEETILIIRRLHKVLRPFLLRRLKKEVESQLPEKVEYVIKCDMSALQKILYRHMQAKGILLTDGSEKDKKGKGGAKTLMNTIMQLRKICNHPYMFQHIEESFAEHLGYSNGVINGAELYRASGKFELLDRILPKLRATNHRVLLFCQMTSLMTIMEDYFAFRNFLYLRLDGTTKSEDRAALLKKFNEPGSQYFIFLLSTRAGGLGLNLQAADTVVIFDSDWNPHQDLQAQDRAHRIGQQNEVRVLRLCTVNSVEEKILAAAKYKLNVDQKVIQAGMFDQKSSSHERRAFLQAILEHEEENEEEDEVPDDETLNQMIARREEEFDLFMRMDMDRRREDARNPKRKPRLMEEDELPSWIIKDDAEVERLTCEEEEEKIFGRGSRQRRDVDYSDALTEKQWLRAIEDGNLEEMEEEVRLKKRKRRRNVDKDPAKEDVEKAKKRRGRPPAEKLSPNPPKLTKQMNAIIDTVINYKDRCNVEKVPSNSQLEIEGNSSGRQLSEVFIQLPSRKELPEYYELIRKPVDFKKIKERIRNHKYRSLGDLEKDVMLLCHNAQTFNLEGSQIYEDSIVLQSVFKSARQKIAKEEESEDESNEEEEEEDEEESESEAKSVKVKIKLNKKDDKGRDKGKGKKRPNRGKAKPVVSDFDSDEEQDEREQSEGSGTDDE
Target sequence in this assay (P40337 whole entry): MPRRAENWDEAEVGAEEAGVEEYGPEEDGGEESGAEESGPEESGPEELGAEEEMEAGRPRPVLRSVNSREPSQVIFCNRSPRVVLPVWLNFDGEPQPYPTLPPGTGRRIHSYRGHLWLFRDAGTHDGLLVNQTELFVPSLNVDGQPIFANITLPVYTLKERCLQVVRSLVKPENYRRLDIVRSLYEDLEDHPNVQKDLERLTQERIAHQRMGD

[4] = molecular target: T2, Protein polybromo-1/von Hippel-Lindau disease tumor suppressor; test: Protac activity at VHL/PBRM1 in human NCI-H1568 cells assessed as protein degradation; format: cell-based
[5] = molecular target: T1, Protein cereblon/Bromodomain-containing protein 4; test: Protac activity at CRBN/BRD4 in human 22Rv1 cells assessed as degradation of BRD4; format: cell-based
[6] = tested on: von Hippel-Lindau disease tumor suppressor/Leucine-rich repeat serine/threonine-protein kinase 2 (Mus musculus), Q5S006+P40338 [G2019S]; test: Protac activity at VHL/LRRK2 G2019S mutant in mouse MEF cells assessed as protein degradation at 33 nM after 4 hrs by Western blot analysis relative to control; format: cell-based
[7] = molecular target: T3, von Hippel-Lindau disease tumor suppressor/SWI/SNF-related matrix-associated actin-dependent regulator of chromatin subfamily A member 2; test: Protac activity at VHL/SMARCA2 in human RKO cells assessed as protein degradation incubated for 18 hrs by capillary electrophoresis analysis; format: cell-based
Target sequence in this assay (P51531 whole entry): as the sequence (P51531 whole entry) above
Target sequence in this assay (P40337 whole entry): as the sequence (P40337 whole entry) above

[8] = molecular target: T3, von Hippel-Lindau disease tumor suppressor/SWI/SNF-related matrix-associated actin-dependent regulator of chromatin subfamily A member 2; test: Protac activity at VHL/SMARCA2 in human RKO cells assessed as induction of protein degradation by measuring maximal efficacy incubated for 18 hrs by capillary electrophoresis analysis relative to control; format: cell-based
Target sequence in this assay (P40337 whole entry, looked up): as the sequence (P40337 whole entry) above
Target sequence in this assay (P51531 whole entry, looked up): as the sequence (P51531 whole entry) above

[9] = molecular target: T4, von Hippel-Lindau disease tumor suppressor/Fibroblast growth factor receptor 1 (Homo sapiens, UniProt P11362+P40337); test: Protac activity at VHL/FGFR1 in human CC-LP-1 cells assessed as protein degradation; format: cell-based
[10] = molecular target: T4, von Hippel-Lindau disease tumor suppressor/Fibroblast growth factor receptor 1; test: Protac activity at VHL/FGFR1 in human CC-LP-1 cells assessed as protein degradation by measuring maximal efficacy relative to control; format: cell-based
[11] = molecular target: T5, Protein fem-1 homolog B/Bromodomain-containing protein 4 (Homo sapiens, UniProt O60885+Q9UK73); test: Protac activity at FEM1B/BRD4 in HEK293T cells assessed as induction of protein degradation by measuring maximal efficacy relative to control; format: cell-based
[12] = molecular target: T5, Protein fem-1 homolog B/Bromodomain-containing protein 4; test: Protac activity at FEM1B/BRD4 in HEK293T cells assessed as degradation of BRD4; format: cell-based
[13] = molecular target: T6, Protein cereblon/Myc proto-oncogene protein (Homo sapiens, UniProt P01106+Q96SW2); test: PROTAC activity at MYC/CRBN in human PSN1 cells assessed as degradation; format: cell-based
[14] = molecular target: T6, Protein cereblon/Myc proto-oncogene protein; test: PROTAC activity at MYC/CRBN in human HCT-116 cells assessed as degradation; format: cell-based
[15] = Oral bioavailability in mouse at 30 mg/kg; format: ADME, organism-based; conditions: in vivo
[16] = molecular target: Protein cereblon/Tyrosine-protein kinase BTK (Homo sapiens) (UniProt Q06187+Q96SW2); test: Protac activity at CRBN/BTK in human NAMALVA cells assessed as protein degradation by measuring maximal efficacy after 24 hrs by Western blot analysis relative to control; format: cell-based
[17] = molecular target: von Hippel-Lindau disease tumor suppressor/ALK tyrosine kinase receptor (Homo sapiens, UniProt Q9UM73+P40337); test: Protac activity at VHL/ALK in human SR cells assessed as protein degradation
[18] = molecular target: E3 ubiquitin-protein ligase XIAP/Tyrosine-protein kinase BTK (Homo sapiens, UniProt P98170+Q06187); test: Protac activity at IAP/BTK in human THP-1 cells assessed as protein degradation; format: cell-based
[19] = molecular target: T1, Protein cereblon/Bromodomain-containing protein 4; test: Protac activity at CRBN/BRD4 in HEK293T cells assessed as protein degradation by immunoblot analysis; format: cell-based
[20] = molecular target: von Hippel-Lindau disease tumor suppressor/Apoptosis regulator Bcl-2 (Homo sapiens, UniProt P10415+P40337); test: Protac activity at VHL/BCL-2 in human HEK293T cells assessed as protein degradation; format: cell-based
[21] = molecular target: von Hippel-Lindau disease tumor suppressor/Bcl-2-like protein 1 (Homo sapiens, UniProt Q07817+P40337); test: Protac activity at VHL/BCL-xL in human HEK293T cells assessed as protein degradation; format: cell-based
[22] = Cmax in C57BL/6 mouse at 30 mg/kg, ip; format: ADME, organism-based; design: dose 30 mg/kg, route ip; conditions: in vivo
[23] = Oral bioavailability in C57BL/6 mouse at 30 mg/kg; format: ADME, organism-based; conditions: in vivo
[24] = tested on: von Hippel-Lindau disease tumor suppressor/Leucine-rich repeat serine/threonine-protein kinase 2 (Mus musculus), Q5S006+P40338 [G2019S]; test: Protac activity at VHL/LRRK2 G2019S mutant in mouse MEF cells assessed as induction of protein degradation by measuring maximal efficacy after 4 hrs by Western blot analysis relative to control; format: cell-based
[25] = Tmax in C57BL/6 mouse at 30 mg/kg, ip; format: ADME, organism-based; conditions: in vivo
[26] = molecular target: von Hippel-Lindau disease tumor suppressor/Leucine-rich repeat serine/threonine-protein kinase 2 (Mus musculus, UniProt Q5S006+P40338); test: Protac activity at VHL/wild type LRRK2 in mouse MEF cells assessed as protein degradation after 4 hrs by Western blot analysis; format: cell-based
[27] = molecular target: T7, von Hippel-Lindau disease tumor suppressor/Leucine-rich repeat serine/threonine-protein kinase 2 (Mus musculus) (UniProt Q5S006+P40338); test: Protac activity at VHL/wild type LRRK2 in mouse MEF cells assessed as protein degradation at 33 nM after 4 hrs by Western blot analysis relative to control; format: cell-based
[28] = molecular target: T7, von Hippel-Lindau disease tumor suppressor/Leucine-rich repeat serine/threonine-protein kinase 2 (Mus musculus); test: Protac activity at VHL/wild type LRRK2 in mouse MEF cells assessed as induction of protein degradation by measuring maximal efficacy after 4 hrs by Western blot analysis relative to control; format: cell-based
[29] = molecular target: von Hippel-Lindau disease tumor suppressor/Leucine-rich repeat serine/threonine-protein kinase 2 (Mus musculus, UniProt Q5S006+P40338, G2019S); test: Protac activity at VHL/LRRK2 G2019S mutant in mouse MEF cells assessed as protein degradation after 4 hrs by Western blot analysis; format: cell-based
[30] = tested on: von Hippel-Lindau disease tumor suppressor/Leucine-rich repeat serine/threonine-protein kinase 2 (Mus musculus), Q5S006+P40338 [G2019S]; test: Protac activity at VHL/LRRK2 G2019S mutant in mouse MEF cells assessed as protein degradation at 1 uM after 4 hrs by Western blot analysis relative to control; format: cell-based
[31] = Cmax in C57BL/6 mouse at 30 mg/kg, po; format: ADME, organism-based; design: dose 30 mg/kg, route po; conditions: in vivo
[32] = Tmax in C57BL/6 mouse at 30 mg/kg, po; format: ADME, organism-based; conditions: in vivo
[33] = molecular target: BRD4/E3 ubiquitin-protein ligase Mdm2 (Homo sapiens) (UniProt Q00987+O60885); test: Protac activity at MDM2/BRD4 in human HCT-116 cells assessed as induction of protein degradation by measuring maximal efficacy relative to control; format: cell-based

T1 sequence (Q96SW2 whole entry, looked up, other chains not shown): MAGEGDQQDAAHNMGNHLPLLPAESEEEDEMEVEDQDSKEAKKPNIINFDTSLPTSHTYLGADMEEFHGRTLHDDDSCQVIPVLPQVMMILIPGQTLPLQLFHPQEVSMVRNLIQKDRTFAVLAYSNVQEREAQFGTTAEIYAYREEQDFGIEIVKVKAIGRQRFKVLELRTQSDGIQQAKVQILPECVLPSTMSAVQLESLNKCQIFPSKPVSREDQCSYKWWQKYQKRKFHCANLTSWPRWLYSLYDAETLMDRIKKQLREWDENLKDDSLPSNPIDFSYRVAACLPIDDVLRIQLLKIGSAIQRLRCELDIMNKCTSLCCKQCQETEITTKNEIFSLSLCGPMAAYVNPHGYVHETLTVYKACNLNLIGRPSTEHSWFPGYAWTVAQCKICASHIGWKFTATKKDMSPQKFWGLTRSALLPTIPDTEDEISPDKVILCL
T2 sequence (Q86U86 whole entry): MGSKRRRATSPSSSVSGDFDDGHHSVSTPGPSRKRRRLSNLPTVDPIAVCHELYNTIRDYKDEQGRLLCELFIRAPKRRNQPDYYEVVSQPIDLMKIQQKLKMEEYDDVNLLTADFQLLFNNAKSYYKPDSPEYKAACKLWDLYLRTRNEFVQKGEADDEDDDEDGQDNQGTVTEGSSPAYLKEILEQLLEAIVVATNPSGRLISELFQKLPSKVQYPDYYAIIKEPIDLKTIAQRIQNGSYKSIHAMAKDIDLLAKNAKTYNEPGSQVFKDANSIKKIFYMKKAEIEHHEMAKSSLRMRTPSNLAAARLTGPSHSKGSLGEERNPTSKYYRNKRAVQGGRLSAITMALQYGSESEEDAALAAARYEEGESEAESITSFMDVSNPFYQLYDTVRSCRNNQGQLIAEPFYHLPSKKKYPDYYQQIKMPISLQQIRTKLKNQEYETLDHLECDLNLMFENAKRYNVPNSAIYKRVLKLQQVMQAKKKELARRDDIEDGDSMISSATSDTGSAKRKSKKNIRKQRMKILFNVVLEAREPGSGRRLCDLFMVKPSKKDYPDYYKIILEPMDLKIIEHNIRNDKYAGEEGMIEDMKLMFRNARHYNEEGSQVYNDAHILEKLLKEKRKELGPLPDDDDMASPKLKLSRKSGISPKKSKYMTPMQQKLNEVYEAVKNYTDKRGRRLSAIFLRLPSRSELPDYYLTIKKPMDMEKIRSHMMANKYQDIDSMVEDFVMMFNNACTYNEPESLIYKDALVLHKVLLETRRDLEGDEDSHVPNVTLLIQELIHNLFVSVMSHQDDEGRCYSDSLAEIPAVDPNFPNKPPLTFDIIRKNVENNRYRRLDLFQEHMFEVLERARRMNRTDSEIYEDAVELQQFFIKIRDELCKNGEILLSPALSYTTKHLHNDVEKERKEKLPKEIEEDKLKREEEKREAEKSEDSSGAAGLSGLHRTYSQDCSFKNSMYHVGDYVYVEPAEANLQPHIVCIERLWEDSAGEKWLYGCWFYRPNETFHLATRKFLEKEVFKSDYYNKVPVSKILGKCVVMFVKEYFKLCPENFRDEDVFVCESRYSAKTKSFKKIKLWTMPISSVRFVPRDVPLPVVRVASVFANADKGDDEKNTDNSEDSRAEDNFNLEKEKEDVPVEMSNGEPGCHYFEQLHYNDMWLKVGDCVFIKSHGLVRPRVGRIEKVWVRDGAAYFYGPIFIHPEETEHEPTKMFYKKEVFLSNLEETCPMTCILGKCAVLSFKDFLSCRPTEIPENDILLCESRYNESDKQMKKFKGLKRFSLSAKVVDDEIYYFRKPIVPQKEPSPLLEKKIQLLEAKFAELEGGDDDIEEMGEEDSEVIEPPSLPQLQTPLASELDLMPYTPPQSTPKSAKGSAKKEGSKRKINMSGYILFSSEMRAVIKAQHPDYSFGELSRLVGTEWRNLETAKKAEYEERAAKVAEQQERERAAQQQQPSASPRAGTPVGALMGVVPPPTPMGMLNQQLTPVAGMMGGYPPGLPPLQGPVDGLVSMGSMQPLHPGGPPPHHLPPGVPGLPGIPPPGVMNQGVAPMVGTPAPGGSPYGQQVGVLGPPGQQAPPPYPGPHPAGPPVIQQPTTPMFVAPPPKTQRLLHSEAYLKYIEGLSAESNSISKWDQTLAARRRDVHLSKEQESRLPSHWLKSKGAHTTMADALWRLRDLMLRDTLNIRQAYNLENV
T2 sequence (P40337 whole entry): as the sequence (P40337 whole entry) above
T5 sequence (Q9UK73 whole entry, looked up, other chains not shown): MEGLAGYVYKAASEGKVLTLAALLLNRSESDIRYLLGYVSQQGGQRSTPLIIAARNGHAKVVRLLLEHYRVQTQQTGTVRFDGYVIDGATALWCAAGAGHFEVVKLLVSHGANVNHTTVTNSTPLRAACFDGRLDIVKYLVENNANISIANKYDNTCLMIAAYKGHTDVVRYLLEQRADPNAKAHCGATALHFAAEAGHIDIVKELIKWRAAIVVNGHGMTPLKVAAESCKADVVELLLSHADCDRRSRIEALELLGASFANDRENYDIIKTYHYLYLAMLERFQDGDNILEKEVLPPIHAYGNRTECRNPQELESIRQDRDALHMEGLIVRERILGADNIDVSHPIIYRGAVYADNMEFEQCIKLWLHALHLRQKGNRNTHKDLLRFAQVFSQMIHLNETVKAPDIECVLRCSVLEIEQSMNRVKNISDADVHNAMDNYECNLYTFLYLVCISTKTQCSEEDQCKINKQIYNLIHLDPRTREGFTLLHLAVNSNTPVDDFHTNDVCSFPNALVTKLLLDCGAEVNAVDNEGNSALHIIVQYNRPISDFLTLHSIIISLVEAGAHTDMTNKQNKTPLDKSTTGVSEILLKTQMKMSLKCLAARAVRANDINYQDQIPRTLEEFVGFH
Sequence of von Hippel-Lindau disease tumor suppressor/Bcl-2-like protein 1 (Q07817 whole entry): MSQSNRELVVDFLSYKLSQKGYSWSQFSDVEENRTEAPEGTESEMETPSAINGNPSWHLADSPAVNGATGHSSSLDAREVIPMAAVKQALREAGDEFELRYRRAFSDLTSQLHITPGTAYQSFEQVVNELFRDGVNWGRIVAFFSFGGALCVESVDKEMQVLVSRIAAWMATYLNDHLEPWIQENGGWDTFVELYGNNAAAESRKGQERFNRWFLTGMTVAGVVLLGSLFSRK
Sequence of von Hippel-Lindau disease tumor suppressor/Bcl-2-like protein 1 (P40337 whole entry): as the sequence (P40337 whole entry) above

Structure (SMILES): Cc1sc2c(c1C)C(c1ccc(Cl)cc1)=N[C@@H](CC(=O)NCCCCNC(=O)COc1cccc3c1C(=O)N(C1CCC(=O)NC1=O)C3=O)c1nnc(C)n1-2 (some centres not stated)
- Emax [1]: 93%

Structure (SMILES): Cc1ncsc1-c1ccc(CNC(=O)[C@@H]2C[C@@H](O)CN2C(=O)[C@@H](NC(=O)C2(F)CC2)C(C)(C)C)c(OCCOc2ccc(CN3CCN(c4cc(-c5ccccc5O)nnc4N)CC3)cc2)c1
- DC50 [2]: 32 nM
- DC50 [3]: 3.3 nM
- DC50 [4]: 15.6 nM

Structure (SMILES): Cc1sc2c(c1C)C(c1ccc(Cl)cc1)=N[C@H](CC(=O)Nc1cccc(OCCOCCOCCNc3cccc4nnn(C5CCC(=O)NC5=O)c(=O)c34)c1)c1nnc(C)n1-2 (some centres not stated)
- DC50 [5]: 0.32 nM

Structure (SMILES): CNc1nc(Nc2ccc(C(=O)N3CCN(CCCOc4cc(-c5scnc5C)ccc4CNC(=O)[C@H]4C[C@@H](O)CN4C(=O)[C@@H](NC(=O)C4(F)CC4)C(C)(C)C)CC3)cc2OC)ncc1Cl
- Activity [6]: 60%

Structure (SMILES): Cc1ncsc1-c1ccc(OCCCN2CCC(c3ccc4c(c3)n(C3CCCC3)c3nc(=O)c5c(Br)cccc5n43)CC2)c(CNC(=O)[C@@H]2C[C@@H](O)CN2C(=O)[C@@H](NC(=O)C2(F)CC2)C(C)(C)C)c1
- DC50 [7]: 78 nM
- Emax [8]: 46%

Structure (SMILES): COc1cc(OC)c(Cl)c(NC(=O)N(C)c2cc(Nc3ccc(N4CCN(CC(=O)N[C@H](C(=O)N5C[C@H](O)C[C@H]5C(=O)N[C@@H](C)c5ccc(-c6scnc6C)cc5)C(C)(C)C)CC4)cc3)ncn2)c1Cl
- DC50 [9]: 4.35 nM
- Emax [10]: 85%

Structure (SMILES): Cc1sc2c(c1C)C(c1ccc(Cl)cc1)=N[C@@H](CC(=O)NCCCCNC(=O)CN1CCOc3cc(N(CCC#N)C(=O)CCl)ccc31)c1nnc(C)n1-2
- Emax [11]: 94%
- DC50 [12]: 250 nM

Structure (SMILES): CC(C)c1ccc(/C=C2\SC(=O)N(CCCCCCCCNC(=O)c3ccc4c(c3)C(=O)N(C3CCC(=O)NC3=O)C4=O)C2=O)cc1 (configuration not stated)
- DC50 [13]: ~10000 nM
- DC50 [14]: 5000 nM

Structure (SMILES): Cc1ncsc1-c1ccc([C@H](CC[C@H](C)CCN2CCC(c3ccc4c(c3)n(C3CCCC3)c3nc(=O)c5c(Br)cccc5n43)CC2)NC(=O)C2C[C@@H](O)CN2C(=O)[C@@H](NC(=O)C2(F)CC2)C(C)(C)C)cc1 (some centres not stated)
- bioavailability [15]: 22%
- DC50 [7]: 1 nM

Structure (SMILES): Nc1ncnc2c1c(-c1ccc(Oc3ccccc3)cc1)nn2C1CCN(CCOCCOCC(=O)Nc2ccc3c(c2)C(=O)N(C2CCC(=O)NC2=O)C3=O)CC1 (configuration not stated)
- Emax [16]: 99%

Structure (SMILES): Cc1ncsc1-c1ccc([C@H](CCCCCN2CCC(c3ccc4c(c3)n(C3CCCC3)c3nc(=O)c5c(Br)cccc5n43)CC2)NC(=O)C2C[C@@H](O)CN2C(=O)[C@@H](NC(=O)C2(F)CC2)C(C)(C)C)cc1 (some centres not stated)
- bioavailability [15]: 3%
- DC50 [7]: 32 nM

Structure (SMILES): COc1cc(N2CCC(N3CCN(C(=O)CCCCCCCCC(=O)N[C@H](C(=O)N4C[C@H](O)C[C@H]4C(=O)NCc4ccc(-c5scnc5C)cc4)C(C)(C)C)CC3)CC2)ccc1Nc1ncc(Cl)c(Nc2ccccc2P(C)(C)=O)n1
- DC50 [17]: 7.5 nM

Structure (SMILES): CN[C@@H](C)C(=O)N[C@H](C(=O)N1CCC[C@H]1c1nc(C(=O)c2ccc(F)cc2)cs1)C1CCN(CCCC(=O)N2CCC[C@@H](n3nc(-c4ccc(Oc5ccc(F)cc5F)cc4)c(C(N)=O)c3N)C2)CC1
- DC50 [18]: 4700 nM

Structure (SMILES): COC(=O)C[C@@H]1N=C(c2ccc(Cl)cc2)c2c(sc(C(=O)NCCCCCNc3ccc4c(c3)C(=O)N(C3CCC(=O)NC3=O)C4=O)c2C)-n2c(C)nnc21 (some centres not stated)
- DC50 [19]: 5 nM

Structure (SMILES): Cc1ncsc1-c1ccc([C@H](C)NC(=O)[C@@H]2C[C@@H](O)CN2C(=O)[C@@H](NC(=O)CCCCCCC(=O)N2CCN(C[C@]3(C)CCC(c4ccc(Cl)cc4)=C(CN4CCN(c5ccc(C(=O)NS(=O)(=O)c6ccc(N[C@H](CCN7CCOCC7)CSc7ccccc7)c(S(=O)(=O)C(F)(F)F)c6)cc5)CC4)C3)CC2)C(C)(C)C)cc1
- DC50 [20]: 48 nM
- DC50 [21]: 6 nM

Structure (SMILES): CNc1nc(Nc2ccc(C(=O)N3CCN(C[C@H]4CC[C@H](CSC(C)(C)[C@H](NC(=O)C5(F)CC5)C(=O)N5C[C@H](O)C[C@@H]5C(=O)NCc5ccc(-c6scnc6C)cc5)CC4)CC3)cc2OC)ncc1Cl
- Cmax [22]: 7700 ng/mL
- bioavailability [23]: 15%
- Emax [24]: 90%
- Tmax [25]: 0.25 h
- DC50 [26]: 32 nM
- Activity [27]: 20%
- Emax [28]: 82%
- Activity [6]: 50%
- DC50 [29]: 14 nM
- Activity [30]: 30%
- Cmax [31]: 3620 ng/mL
- Tmax [32]: 2 h

Structure (SMILES): COc1cc(C(=O)NCCOCCOCCOCCNC(=O)C[C@@H]2N=C(c3ccc(Cl)cc3)c3c(sc(C)c3C)-n3c(C)nnc32)ccc1NC(=O)[C@@H]1N[C@@H](CC(C)(C)C)[C@](C#N)(c2ccc(Cl)cc2F)[C@H]1c1cccc(Cl)c1F
- Emax [33]: 98%
